{
  "source": "patent US20220326218A1",
  "about": "“COMPOSITION AND METHOD FOR INHIBITING BORC COMPLEX TO TREAT CANCERS WITH NF1 DEFICIENCY AND DYSREGULATED RAS SIGNALING” (THE TRUSTEES OF DARTMOUTH COLLEGE, priority 2019, published 2022)",
  "format_in_all_cases": "cell-based, human",
  "key": {"BNIP3L/Nix [1]": {"test_system": "BNIP3L/Nix", "test": "qPCR of BNIP3L/Nix transcript", "details": "U87-MG"}, "[2]": {"test_system": "8-hydroxyguanosine (8-OHG)", "test": "Immunofluorescence staining for oxidative stress marker 8-OHG", "details": "U87-MG, 2 μM, 24 h", "experimental": "(§1) U87-MG cells were plated at a concentration of 50,000 cells/well onto precoated poly-D-lysine (PDL) coverslips (Neuvitro) in 24-well plates (Falcon) and allowed to adhere overnight. Medium was removed and replaced with treatment-laced media normalized to DMSO, and cells were treated for the indicated timepoints. At the time of collection, cells were washed with PBS and fixed with 4% paraformaldehyde without methanol (EMS) or 100% methanol (Fischer). Coverslips were washed with Tween20-containing PBS (PBST; Fischer). Following permeabilization with 0.5% Triton X-100 in PBS (Fischer), coverslips were blocked for 1 h at room temperature in IF Buffer (0.05% azide, 0.2% Triton X-100, 2% Normal Goat Serum or, for 8-OHG, Normal Donkey Serum). The following primary antibodies were used for 1 hour at room temperature unless specified: AlexaFluor 488 pre-conjugated anti-γ-H2AX (N1-431) mouse monoclonal (30 minutes; BD Biosciences), anti-cleaved caspase 3 (Asp175) rabbit polyclonal (Cell Signaling), anti-SQSTM1/p62 (D-3) mouse monoclonal (Santa Cruz), anti-8-Hydroxyguanosine goat polyclonal (1:200; Millipore), anti-LAMP1 (D4O1S) mouse monoclonal (O/N at 4° C.; Cell Signaling), anti-BNIP3L/Nix (D4R4B) rabbit monoclonal (O/N at 4° C.; Cell Signaling), anti-FLAG (M2) mouse monoclonal (2 hours at 37° C.; Sigma-Aldrich). […]"}, "mitochondria": {"test_system": "mitochondria", "test": "MitoTracker Red CMXRos staining of the mitochondrial network", "details": "U87-MG, 24 h; 2 μM Y102, 50 μM HCQ", "experimental": "For MitoTracker Red CMXRos staining, 30 minutes prior to collection medium was removed and replaced with medium containing MitoTracker Red CMXRos at a final concentration of 100 nM (Molecular Probes). Following staining, cells were washed with PBS and fixed with 4% paraformaldehyde without methanol. Cells were washed with PBST, then permeabilized with 0.5% Triton X-100 in PBS. When co-staining with another marker, the staining procedure continued with the blocking step; otherwise, cells were stained with 0.33 μg/mL DAPI in PBS and mounted onto slides in ProLong Gold (Life Technologies)."}, "U87-MG cells [3]": {"test_system": "U87-MG cells", "test": "Hoechst cell death viability assay, U87-MG", "experimental": "(§2) Cells were plated at 2,500 cells/well in 96-well plates and allowed to adhere overnight. Medium was removed and replaced with media containing compound starting at 100 μM, followed by 2-fold serial dilutions to generate a 10-point range of concentrations normalized with DMSO; one row was treated with DMSO as a control. Cells were incubated for the indicated timepoints. Upon collection, media was removed, cells were rinsed with PBS, and stored at −80° C. until all plates were collected. To process cells, plates were thawed with PBS, incubated with 1× saline-sodium citrate (SSC) buffer with 0.02% sodium dodecyl sulfate (SDS) for 1 hour at 37° C., followed by staining with 1 μg/mL Hoechst 33258 (Pierce). […] using a Spectramax M2 at an excitation of 355 nm and an emission of 460 nm, and absorbance was normalized to DMSO. Each experiment was repeated 2-3 times with 4 technical replicates per experiment."}, "lysosomes": {"test_system": "lysosomes", "test": "Immunofluorescence staining of lysosomes (LAMP1) and mitochondria (Tom20)", "details": "U87-MG, 2 μM, 16 h", "experimental": "as §1, with “Sigma-Aldrich). Following washes with PBST, cells were stained with goat anti-rabbit or goat anti-mouse AlexaFluor 488 or AlexaFluor 594 (or, for 8-OHG, donkey anti-goat AlexaFluor 488) secondary antibody at 1:800 for 1 hour at room temperature (Jackson ImmunoResearch).” for “Sigma-Aldrich).”\nAll confocal images were acquired on a Nikon AIRSi confocal microscope equipped with a 60× 1.4 NA oil objective, a DU4 detector unit, and Nikon Elements software. Otherwise, images were acquired on a Zeiss Axio Imager.Z1 equipped with a Zeiss EC Plan-NEOFLUAR 40× 1.3 NA oil objective, a Zeiss AxioCam MRm camera, a Lumen Dynamics Series 120 Q X-Cite Fluorescence Illuminator, and AxioVision SE64 Rel. […]"}, "sequestosome-1 (p62)": {"test_system": "sequestosome-1 (p62)", "test": "Immunofluorescence staining for p62", "details": "U87-MG, 24 h; 2 μM Y102, 50 μM HCQ; HCQ and Y102 compared with each other", "experimental": "as §1"}, "BNIP3L/Nix [4]": {"test_system": "BNIP3L/Nix", "test": "Immunofluorescence staining for mitophagy receptor BNIP3L/Nix", "details": "U87-MG, 24 h; 2 μM Y102, 100 μM CoCl2; CoCl2 and Y102 compared with each other", "experimental": "as §1"}, "U87-MG cells [5]": {"test_system": "U87-MG cells", "test": "Flow cytometry cell cycle distribution (DNA content)", "details": "2 μM, 24 h", "experimental": "U87-MG cells were plated at 500,000 cells/well in a 6-well plate and allowed to adhere overnight. The medium was replaced with cell culture media containing DMSO, 2 μM Y102, 100 nM Doxorubicin, or 100 μM CoCl2 for 24 hours. At the end of the incubation, cells were rinsed twice with PBS, trypsinized, and rinsed again with PBS prior to fixation with BD cytofix/cytoperm for 30 minutes on ice. After washing with BD perm/wash twice, cells were stained with DAPI at a final concentration 0.33 μg/mL in PBS for 30 minutes on ice. Cells were washed twice more with BD perm/wash, and resuspended in PBS for analysis. The cells were transferred to flow cytometry tubes (14-961-10, Fisherbrand) and analyzed using a MacsQuant VYB 8-color flow cytometer. DNA content was detected using the V1 channel. This experiment was repeated twice, and the percentage of cells in each cell cycle stage is shown. 50,000 events per sample were collected and cellular debris was gated out of the dataset."}, "sNF96.2 cells": {"test_system": "sNF96.2 cells", "test": "Hoechst cell death viability assay, sNF96.2", "details": "sNF96.2 MPNST cells, up to 3 days, 100 μM to 0.039 μM, Hoechst 33258", "experimental": "as §2"}, "p21": {"test_system": "p21", "test": "Immunofluorescence of p21 expression and nucleus size", "details": "U87-MG, 2 μM, 24 h", "experimental": "as §1"}},
  "data": [
    {"smiles": "Cn1cnnc1S/C=C/C(=O)c1ccc(F)cc1", "note": "[Y102]", "values": [
      {"measurement": "BNIP3L/Nix RNA levels versus DMSO", "setting": "BNIP3L/Nix [1]", "value": "little difference"},
      {"measurement": "8-OHG compared to DMSO", "setting": "[2]", "value": "increase"},
      {"measurement": "localization of 8-OHG oxidative stress-induced damage", "setting": "[2]", "value": "both nuclear and mitochondrial DNA"},
      {"measurement": "mitochondrial phenotype (perinuclear clustering)", "setting": "mitochondria", "value": "perinuclear clustering of the mitochondria"},
      {"measurement": "growth inhibition, acute treatment of 2 hours compared to continuous treatment for 72 hours", "setting": "U87-MG cells [3]", "value": "same degree of growth inhibition"},
      {"measurement": "reversibility of effects after a 2 hour treatment", "setting": "U87-MG cells [3]", "value": "irreversible"},
      {"measurement": "concentration from which cell proliferation was inhibited", "setting": "U87-MG cells [3]; continuous treatment, seven days, normalized to day zero plating", "value": "≥ 3.125", "unit": "µM"},
      {"measurement": "sensitivity of NF1-deficient cell line to treatment", "setting": "U87-MG cells [3]; up to 7 days, 100 μM to 0.039 μM, Hoechst 33258", "value": "sensitive"},
      {"measurement": "localization of lysosomes", "setting": "lysosomes; LAMP1", "value": "perinuclear region"},
      {"measurement": "lysosome expression", "setting": "lysosomes; LAMP1", "value": "increase"},
      {"measurement": "colocalization between lysosomes and mitochondria", "setting": "lysosomes; LAMP1/Tom20, ratiometric analysis, confocal", "value": "observed"},
      {"measurement": "p62 expression compared to DMSO (immunofluorescence)", "setting": "sequestosome-1 (p62)", "value": "increased"},
      {"measurement": "expression/localization of BNIP3L/Nix on the mitochondria compared to DMSO control", "setting": "BNIP3L/Nix [4]", "value": "increase"},
      {"measurement": "cell cycle arrest (cell cycle distribution by DNA content)", "setting": "U87-MG cells [5]", "value": "no indication"},
      {"measurement": "sensitivity of NF1-deficient cell line to treatment", "setting": "sNF96.2 cells", "value": "sensitive"},
      {"measurement": "nucleus size", "setting": "p21", "value": "increase"},
      {"measurement": "p21 expression", "setting": "p21", "value": "increase"}
    ]}
  ]
}
